Where “and” joins values, the source holds several entries; their conditions need not be identical. Equal entries are not always repeated. Marks after values point to notes of the source that are not given here.
Legend:
Caco-2 cell monolayer = test: Caco-2 monolayer transport (bioavailability) study, AB and BA directions; format: in vitro ADME, Homo sapiens; settings: for TE (%) transport efficiency: after 180 min; for reduction in concentration on the apical (donor) side: 0 to 180 min
In short: (§1)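 Grape skin extract in HBSS (15 or 22 mg/mL) applied to 21-day Caco-2 monolayers (TEER ≥300 Ω cm²) in AB and BA directions; acceptor samples quantified per polyphenol by HPLC-UV. Papp from steady-state flux over 1.12 cm², efflux ratio as Papp(BA)/Papp(AB), plus transport efficiency (C/C0).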

[1] = as above; format: in vitro ADME, Homo sapiens; settings: human; for efflux ratio at 180 min, 15 mg/mL / efflux ratio at 180 min, 22 mg/mL: Caco-2, Papp (BA)/Papp (AB), read-out: ER (efflux ratio); for efflux ratio at 180 min, 15 mg/mL / Papp A→B at 180 min, 15 mg/mL / Papp B→A at 180 min, 15 mg/mL: S1 (15 mg/mL GSE); for efflux ratio at 180 min, 22 mg/mL / Papp A→B at 180 min, 22 mg/mL / Papp B→A at 180 min, 22 mg/mL: S2 (22 mg/mL GSE); for efflux ratio at 180 min: Caco-2, text statement, S1 and S2; for Papp A→B at 180 min, 15 mg/mL / Papp A→B at 180 min, 22 mg/mL / Papp B→A at 180 min, 15 mg/mL / Papp B→A at 180 min, 22 mg/mL: Caco-2; for Papp A→B at 180 min, 15 mg/mL / Papp A→B at 180 min, 22 mg/mL: apical to basolateral; for Papp B→A at 180 min, 15 mg/mL / Papp B→A at 180 min, 22 mg/mL: basolateral to apical
In short: as §1

[2] = AB experiment, S1 (15 mg/mL GSE)
[3] = AB experiment, S2 (22 mg/mL GSE)
[4] = AB experiment, acceptor side, S1 (15 mg/mL GSE)
[5] = AB experiment, acceptor side, S2 (22 mg/mL GSE)
[6] = AB experiment, donor side, S1 (15 mg/mL GSE)
[7] = AB experiment, donor side, S2 (22 mg/mL GSE)
[8] = AB experiments, basolateral side
[9] = BA experiment, S1 (15 mg/mL GSE)
[10] = BA experiment, S2 (22 mg/mL GSE)
[11] = BA experiment, acceptor side, S1 (15 mg/mL GSE)
[12] = BA experiment, acceptor side, S2 (22 mg/mL GSE)
[13] = BA experiment, donor side, S1 (15 mg/mL GSE)
[14] = BA experiment, donor side, S2 (22 mg/mL GSE)

## O=C(O)c1cc(O)c(O)c(O)c1 [GA, gallic acid]
Caco-2 cell monolayer; [2]
  TE (%) transport efficiency: 156 ± 26%
Caco-2 cell monolayer; [3]
  TE (%) transport efficiency: 164 ± 23%
Caco-2 cell monolayer; [4]
  Basolateral Side 75 min: 8.1 ± 0.9 ^b mg/L
  Basolateral Side 90 min: 8.6 ± 0.9 ^b mg/L
  Basolateral Side 115 min: 9.1 ± 0.9 ^b mg/L
  Basolateral Side 180 min: 9.4 ± 0.9 ^b mg/L
Caco-2 cell monolayer; [5]
  Basolateral Side 75 min: 8.1 ± 0.9 ^b mg/L
  Basolateral Side 90 min: 8.6 ± 0.9 ^b mg/L
  Basolateral Side 115 min: 9.1 ± 0.9 ^b mg/L
  Basolateral Side 180 min: 9.6 ± 0.9 ^b mg/L
Caco-2 cell monolayer; [6]
  Apical Side 0 min: 6.1 ± 0.5 ^a mg/L
  Apical Side 75 min: 5.0 ± 0.5 ^b mg/L
  Apical Side 90 min: 4.1 ± 0.4 ^c mg/L
  Apical Side 115 min: 3.4 ± 0.4 ^c,d mg/L
  Apical Side 180 min: 2.9 ± 0.3 ^d mg/L
Caco-2 cell monolayer; [7]
  Apical Side 0 min: 5.9 ± 0.3 ^a mg/L
  Apical Side 75 min: 5.0 ± 0.3 ^b mg/L
  Apical Side 90 min: 4.4 ± 0.3 ^c mg/L
  Apical Side 115 min: 3.7 ± 0.3 ^d mg/L
  Apical Side 180 min: 3.2 ± 0.3 ^d mg/L
Caco-2 cell monolayer; [8]
  detection at the acceptor side: detected
Caco-2 cell monolayer; [9]
  TE (%) transport efficiency: 165 ± 6% and 164 ± 6%
Caco-2 cell monolayer; [10]
  TE (%) transport efficiency: 188 ± 4% and 188 ± 3%
Caco-2 cell monolayer; [11]
  Apical Side 75 min: 8.1 ± 0.3 ^a,b mg/L
  Apical Side 90 min: 9.4 ± 0.2 ^b,c mg/L
  Apical Side 115 min: 10.5 ± 0.3 ^c,d mg/L
  Apical Side 180 min: 11.3 ± 0.3 ^d mg/L
Caco-2 cell monolayer; [12]
  Apical Side 75 min: 8.3 ± 0.5 ^a,b mg/L
  Apical Side 90 min: 9.6 ± 0.5 ^b,c mg/L
  Apical Side 115 min: 10.7 ± 0.6 ^c mg/L
  Apical Side 180 min: 11.5 ± 0.7 ^c mg/L
Caco-2 cell monolayer; [13]
  Basolateral Side 0 min: 6.9 ± 0.3 ^a mg/L
  Basolateral Side 75 min: 6.5 ± 0.3 ^b mg/L
  Basolateral Side 90 min: 6.2 ± 0.3 ^c mg/L
  Basolateral Side 115 min: 5.9 ± 0.3 ^d mg/L
  Basolateral Side 180 min: 5.5 ± 0.2 ^c mg/L
Caco-2 cell monolayer; [14]
  Basolateral Side 0 min: 6.1 ± 0.4 ^a mg/L
  Basolateral Side 75 min: 5.7 ± 0.4 ^b mg/L
  Basolateral Side 90 min: 5.4 ± 0.4 ^c mg/L
  Basolateral Side 115 min: 5.0 ± 0.4 ^d mg/L
  Basolateral Side 180 min: 4.7 ± 0.3 ^d mg/L
Caco-2 cell monolayer; BA experiments, apical side
  detection at the acceptor side: detected
[1]
  efflux ratio at 180 min, 15 mg/mL: 0.7
  efflux ratio at 180 min, 22 mg/mL: 0.7
  efflux ratio at 180 min: < 1
  Papp A→B at 180 min, 15 mg/mL: 1690 ± 70 ×10⁻⁶ cm/s
  Papp A→B at 180 min, 22 mg/mL: 1800 ± 200 ×10⁻⁶ cm/s
  Papp B→A at 180 min, 15 mg/mL: 1150 ± 60 ×10⁻⁶ cm/s
  Papp B→A at 180 min, 22 mg/mL: 1290 ± 5 ×10⁻⁶ cm/s

## O=c1c(O[C@@H]2O[C@H](CO)[C@@H](O)[C@H](O)[C@H]2O)c(-c2ccc(O)cc2)oc2cc(O)cc(O)c12 [K3G, kaempferol-3-glucoside]
Caco-2 cell monolayer; [2]
  reduction in concentration on the apical (donor) side: 33.6 ± 0.5%
  TE (%) transport efficiency: 97 ± 2%
Caco-2 cell monolayer; [3]
  reduction in concentration on the apical (donor) side: 28.7 ± 0.9%
  TE (%) transport efficiency: 60 ± 1% and 60.2 ± 0.9%
Caco-2 cell monolayer; [4]
  Basolateral Side 75 min: 6.2 ± 0.1 ^b mg/L
  Basolateral Side 90 min: 6.7 ± 0.1 ^c mg/L
  Basolateral Side 115 min: 7.1 ± 0.1 ^c mg/L
  Basolateral Side 180 min: 7.4 ± 0.1 ^c mg/L
Caco-2 cell monolayer; [5]
  Basolateral Side 75 min: 6.4 ± 0.1 ^b mg/L
  Basolateral Side 90 min: 6.8 ± 0.2 ^c mg/L
  Basolateral Side 115 min: 7.2 ± 0.2 ^d,c mg/L
  Basolateral Side 180 min: 7.6 ± 0.2 ^c mg/L
Caco-2 cell monolayer; [6]
  Apical Side 0 min: 7.7 ± 0.3 mg/L and 7.7 ± 0.3 ^a mg/L
  Apical Side 75 min: 7.1 ± 0.2 ^b mg/L
  Apical Side 90 min: 6.7 ± 0.2 ^b,c mg/L
  Apical Side 115 min: 6.4 ± 0.2 ^c mg/L
  Apical Side 180 min: 5.0 ± 0.2 mg/L and 5.1 ± 0.2 ^d mg/L
Caco-2 cell monolayer; [7]
  Apical Side 0 min: 12.7 ± 0.3 mg/L and 12.7 ± 0.3 ^a mg/L
  Apical Side 75 min: 11.8 ± 0.3 ^b mg/L
  Apical Side 90 min: 11.3 ± 0.3 ^b,c mg/L
  Apical Side 115 min: 10.6 ± 0.23 ^c mg/L
  Apical Side 180 min: 9.0 ± 0.2 mg/L and 9.0 ± 0.2 ^d mg/L
Caco-2 cell monolayer; [8]
  detection at the acceptor side: detected
Caco-2 cell monolayer; [9]
  TE (%) transport efficiency: 130 ± 3%
Caco-2 cell monolayer; [10]
  TE (%) transport efficiency: 109.0 ± 0.9%
Caco-2 cell monolayer; [11]
  Apical Side 75 min: 6.1 ± 0.3 ^b mg/L
  Apical Side 90 min: 7.4 ± 0.3 ^c mg/L
  Apical Side 115 min: 8.7 ± 0.4 ^d mg/L
  Apical Side 180 min: 9.9 ± 0.4 ^c mg/L
Caco-2 cell monolayer; [12]
  Apical Side 75 min: 6.8 ± 0.2 ^a,b mg/L
  Apical Side 90 min: 8.1 ± 0.2 ^b,c mg/L
  Apical Side 115 min: 9.4 ± 0.3 ^c,d mg/L
  Apical Side 180 min: 10.6 ± 0.3 ^c mg/L
Caco-2 cell monolayer; [13]
  Basolateral Side 0 min: 7.6 ± 0.2 ^a mg/L
  Basolateral Side 75 min: 7.2 ± 0.2 ^b mg/L
  Basolateral Side 90 min: 6.9 ± 0.2 ^c mg/L
  Basolateral Side 115 min: 6.6 ± 0.1 ^d mg/L
  Basolateral Side 180 min: 6.1 ± 0.1 ^c mg/L
Caco-2 cell monolayer; [14]
  Basolateral Side 0 min: 9.8 ± 0.2 ^a mg/L
  Basolateral Side 75 min: 9.5 ± 0.2 ^b mg/L
  Basolateral Side 90 min: 9.3 ± 0.2 ^c mg/L
  Basolateral Side 115 min: 9.1 ± 0.2 ^d mg/L
  Basolateral Side 180 min: 8.5 ± 0.2 ^c mg/L
Caco-2 cell monolayer; BA experiments, apical side
  detection at the acceptor side: detected
[1]
  efflux ratio at 180 min, 15 mg/mL: 1.1
  efflux ratio at 180 min, 22 mg/mL: 1.3
  efflux ratio at 180 min: > 1
  Papp A→B at 180 min, 15 mg/mL: 1160 ± 20 ×10⁻⁶ cm/s
  Papp A→B at 180 min, 22 mg/mL: 730 ± 40 ×10⁻⁶ cm/s
  Papp B→A at 180 min, 15 mg/mL: 1230 ± 30 ×10⁻⁶ cm/s
  Papp B→A at 180 min, 22 mg/mL: 970 ± 30 ×10⁻⁶ cm/s

— article PMC12248599, “Exploring the Bioavailability of Red Grape Skin Extract Polyphenols: A Caco-2 Cell Model Study” (Foods, 2025)
